Reference: article PMC3268193 (British Journal of Pharmacology, 2012)
Changes are numbered by the printed parent chain. Several values for one entry are separate records, joined by “and”; a condition that tells them apart may be missing. Identical values can stand only once.

Experiments:
[1] = tested on: WT or mutant P2X receptors; test: Holding current in the absence of ATP; assay type: cell-based, human
[2] = target: T1, P2X1 receptor mutant R139M (Homo sapiens, UniProt P51575, R139M); test: Two-electrode voltage clamp, P2X1 mutant R139M; assay type: cell-based
T1 sequence (P51575 1-399 R139M): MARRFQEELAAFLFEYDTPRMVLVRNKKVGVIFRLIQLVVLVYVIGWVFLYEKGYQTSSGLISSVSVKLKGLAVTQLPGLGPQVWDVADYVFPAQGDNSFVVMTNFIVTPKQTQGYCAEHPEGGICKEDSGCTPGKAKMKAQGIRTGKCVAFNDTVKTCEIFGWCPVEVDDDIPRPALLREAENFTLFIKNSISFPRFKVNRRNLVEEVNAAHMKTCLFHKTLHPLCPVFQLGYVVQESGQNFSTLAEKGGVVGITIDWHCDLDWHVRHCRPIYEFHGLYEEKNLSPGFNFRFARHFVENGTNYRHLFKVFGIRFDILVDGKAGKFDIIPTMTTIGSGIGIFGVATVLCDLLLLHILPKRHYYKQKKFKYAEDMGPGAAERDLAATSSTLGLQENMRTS

[3] = target: T2, P2X2 receptor mutant D136K (Homo sapiens, UniProt Q9UBL9, D148K); test: Two-electrode voltage clamp, P2X2 mutant D136K; assay type: cell-based
T2 sequence (Q9UBL9 1-471 D148K): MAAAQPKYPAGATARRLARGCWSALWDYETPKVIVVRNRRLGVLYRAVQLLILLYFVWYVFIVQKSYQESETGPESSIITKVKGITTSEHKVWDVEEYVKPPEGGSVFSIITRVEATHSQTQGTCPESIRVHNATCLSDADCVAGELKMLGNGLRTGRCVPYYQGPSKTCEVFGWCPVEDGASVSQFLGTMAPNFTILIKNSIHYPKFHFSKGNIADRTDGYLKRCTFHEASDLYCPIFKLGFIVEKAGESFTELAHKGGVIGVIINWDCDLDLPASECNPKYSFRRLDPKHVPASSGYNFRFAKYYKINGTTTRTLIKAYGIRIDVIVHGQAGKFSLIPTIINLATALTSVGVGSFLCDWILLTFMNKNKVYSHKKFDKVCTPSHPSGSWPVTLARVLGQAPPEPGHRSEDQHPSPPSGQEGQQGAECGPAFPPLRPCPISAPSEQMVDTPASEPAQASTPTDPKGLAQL

human P2X1 receptor WT = target: T3, human P2X1 receptor WT (Homo sapiens, UniProt P51575); test: Two-electrode voltage clamp, WT P2X1 receptor in Xenopus oocytes; assay type: cell-based
T3 sequence (P51575 1-399): T1 sequence (P51575 1-399 R139M) with M139R

[4] = target: T4, P2X1 receptor mutant K136E (Homo sapiens, UniProt P51575, K136E); test: Two-electrode voltage clamp, P2X1 mutant K136E; assay type: cell-based
T4 sequence (P51575 1-399 K136E): T1 sequence (P51575 1-399 R139M) with K136E, M139R

human P2X2 receptor WT = target: T5, human P2X2 receptor WT (Homo sapiens, UniProt Q9UBL9); test: Two-electrode voltage clamp, WT P2X2 receptor in Xenopus oocytes; assay type: cell-based
T5 sequence (Q9UBL9 1-471): T2 sequence (Q9UBL9 1-471 D148K) with K148D

P2X2 Cys1(3-4) chimera = target: T6, P2X2 Cys1(3-4) chimera (Homo sapiens, UniProt Q9UBL9, A144P/D148K/E146K/G151A/L147A/L150K/L154I/M149R/N152Q/R158K/V143T); test: Two-electrode voltage clamp, chimera P2X2 Cys1; assay type: cell-based
T6 sequence (Q9UBL9 1-471 V143T/A144P/E146K/L147A/D148K/M149R/L150K/G151A/N152Q/L154I/R158K): T2 sequence (Q9UBL9 1-471 D148K) with V143T, A144P, E146K, L147A, M149R, L150K, G151A, N152Q, L154I, R158K

[5] = 1 nM antagonist, EC90 ATP (10 µM)

O=C(Nc1cc(C(=O)Nc2ccc(S(=O)(=O)O)cc2S(=O)(=O)O)cc(C(=O)Nc2ccc(S(=O)(=O)O)cc2S(=O)(=O)O)c1)Nc1cc(C(=O)Nc2ccc(S(=O)(=O)O)cc2S(=O)(=O)O)cc(C(=O)Nc2ccc(S(=O)(=O)O)cc2S(=O)(=O)O)c1 [NF449, 4,4′,4′′,4′′′-(carbonylbis(imino-5,1,3-benzenetriyl-bis(carbonylimino)))tetrakis-benzene-1,3-disulphonic acid]
Effect on holding current ([1]; NF449 10 µM): no effect | Reduction of ATP-evoked current [2, 5]: 40–70% | Effect of mutation on NF449 sensitivity [3]: no effect | Schild slope (human P2X1 receptor WT; WT P2X1): 1.17± 0.16 | Hill slope of NF449 inhibition curve (human P2X1 receptor WT; WT P2X1, vs EC90 ATP): 0.98 ± 0.13 | Reduction of ATP-evoked current [4, 5]: 40–70% | NF449 pIC50 (human P2X2 receptor WT; P2X2 WT, vs EC90 concentration of ATP): 5.86 ± 0.09 | Hill slope of NF449 inhibition curve (human P2X2 receptor WT; WT P2X2, vs EC90 ATP): 1.61 ± 0.08 | IC50 (human P2X2 receptor WT; read-out: NF449 IC50, P2X2 receptor, vs EC90 ATP (30 µM)): ~1000 nM and ~1500 nM | IC50 (P2X2 Cys1(3-4) chimera; read-out: NF449 IC50, vs EC90 ATP): 1100 nM

Cc1ccc(C(=O)Nc2ccc(S(=O)(=O)O)c3cc(S(=O)(=O)O)cc(S(=O)(=O)O)c23)cc1NC(=O)c1cccc(NC(=O)Nc2cccc(C(=O)Nc3cc(C(=O)Nc4ccc(S(=O)(=O)O)c5cc(S(=O)(=O)O)cc(S(=O)(=O)O)c45)ccc3C)c2)c1 [suramin]
Effect on holding current ([1]; suramin 100 µM): no effect | Effect of mutation on suramin sensitivity [2]: no effect | Effect of mutation on suramin sensitivity [3]: no effect | Difference in suramin sensitivity between human P2X1 and P2X2 receptors (human P2X1 receptor WT): ~60 fold | Effect of mutation on suramin sensitivity [4]: no effect | Reduction of responses to ATP (human P2X2 receptor WT; P2X2, 100 µM suramin, ATP 30 µM (EC90)): ~50% | Increase in suramin sensitivity compared with WT P2X2 (P2X2 Cys1(3-4) chimera): ~30 fold
